From ChEMBL document CHEMBL3046348, “Synthesis and antimicrobial screening of novel 2,6-ditertiarybutylpiperidin-4-ones” (2012)
Values after ≈ are worked out from the molar mass of the structure shown.

Assays:
Assay type in all cases: functional
Trichoderma = test: Antifungal activity against Trichoderma sp after 72 to 96 hr by serial dilution method
Bacillus subtilis = test: Antibacterial activity against Bacillus subtilis after 24 hr by serial dilution method
Escherichia coli = test: Antibacterial activity against Escherichia coli after 24 hr by serial dilution method
Aspergillus niger = test: Antifungal activity against Aspergillus niger after 72 to 96 hr by serial dilution method
Klebsiella pneumoniae = test: Antibacterial activity against Klebsiella pneumoniae after 24 hr by serial dilution method

Row | Compound | MIC (Trichoderma) [µg/mL] | MIC (Bacillus subtilis) [µg/mL] | MIC (Escherichia coli) [µg/mL] | MIC (Aspergillus niger) [µg/mL] | MIC (Klebsiella pneumoniae) [µg/mL]
1 | CC(C)(C)C1CC(=O)CC(C(C)(C)C)N1 (stereo not given) | 8 (≈ 37.9 µM) | 8 (≈ 37.9 µM) | 64 (≈ 303 µM) | 8 (≈ 37.9 µM) | 64 (≈ 303 µM)
2 | CC1C(=O)CC(C(C)(C)C)NC1C(C)(C)C (stereo not given) | 16 (≈ 71 µM) | 16 (≈ 71 µM) | 256 (≈ 1140 µM) | 8 (≈ 35.5 µM) | > 512
3 | CCOC(=O)C1C(=O)CC(C(C)(C)C)NC1C(C)(C)C (stereo not given) | 32 (≈ 113 µM) | 8 (≈ 28.2 µM) | 64 (≈ 226 µM) | 8 (≈ 28.2 µM) | 128 (≈ 452 µM)
4 | CC(C)(C)C1CC(=NO)CC(C(C)(C)C)N1 (stereo not given) | 16 (≈ 70.7 µM) | 64 (≈ 283 µM) | 256 (≈ 1130 µM) | 64 (≈ 283 µM) | > 512
5 | CC1/C(=N/O)CC(C(C)(C)C)NC1C(C)(C)C (stereo not given) | 8 (≈ 33.3 µM) | 16 (≈ 66.6 µM) | > 512 | 8 (≈ 33.3 µM) | 32 (≈ 133 µM)
6 | CCOC(=O)C1/C(=N\O)CC(C(C)(C)C)NC1C(C)(C)C (stereo not given) | 8 (≈ 26.8 µM) | 64 (≈ 214 µM) | 16 (≈ 53.6 µM) | 8 (≈ 26.8 µM) | 64 (≈ 214 µM)
7 | CC(C)(C)C1CC(=O)CC(C(C)(C)C)N1C(C)(C)C (stereo not given) | 16 (≈ 59.8 µM) | 8 (≈ 29.9 µM) | 64 (≈ 239 µM) | 8 (≈ 29.9 µM) | 128 (≈ 479 µM)
8 | CC1C(=O)CC(C(C)(C)C)N(C(C)(C)C)C1C(C)(C)C (stereo not given) | 16 (≈ 56.8 µM) | 16 (≈ 56.8 µM) | > 512 | 8 (≈ 28.4 µM) | 64 (≈ 227 µM)
9 | CCOC(=O)C1C(=O)CC(C(C)(C)C)N(C(C)(C)C)C1C(C)(C)C (stereo not given) | > 512 | 16 (≈ 47.1 µM) | 64 (≈ 189 µM) | > 512 | 256 (≈ 754 µM)
10 | CC(C)(C)C1CC(=O)CC(C(C)(C)C)N1N=O (stereo not given) | > 512 | 16 (≈ 66.6 µM) | > 512 | > 512 | 256 (≈ 1070 µM)
11 | CC1C(=O)CC(C(C)(C)C)N(N=O)C1C(C)(C)C (stereo not given) | 8 (≈ 31.4 µM) | 16 (≈ 62.9 µM) | > 512 | 16 (≈ 62.9 µM) | 512 (≈ 2010 µM)
12 | CCOC(=O)C1C(=O)CC(C(C)(C)C)N(N=O)C1C(C)(C)C (stereo not given) | 32 (≈ 102 µM) | 64 (≈ 205 µM) | 64 (≈ 205 µM) | 64 (≈ 205 µM) | 32 (≈ 102 µM)
13 | C[C@@H]1[C@H](O)[C@@H](C)/C=C/C=C/C=C/C=C/C=C/C=C/C=C/[C@H](O[C@@H]2O[C@H](C)[C@@H](O)[C@H](N)[C@@H]2O)C[C@@H]2O[C@](O)(C[C@@H](O)C[C@@H](O)[C@H](O)CC[C@@H](O)C[C@@H](O)CC(=O)O[C@H]1C)C[C@H](O)[C@H]2C(=O)O [AMPHOTERICIN B] | 32 (≈ 34.6 µM) | – | – | 32 (≈ 34.6 µM) | –
14 | CCn1cc(C(=O)O)c(=O)c2cc(F)c(N3CCNCC3)cc21 [NORFLOXACIN] | – | 16 (≈ 50.1 µM) | 32 (≈ 100 µM) | – | 16 (≈ 50.1 µM)
